Results reported in patent US20240299275A1, “HYDROXY ACIDS FOR SCALP AND HAIR IN SULFATE FREE PERSONAL CARE COMPOSITIONS” (The Procter & Gamble Company, priority 2023, published 2024).
Where “and” joins values, the source holds several entries; their conditions need not be identical. Identical values can stand only once.

Tests used:
[1] = Surfactant stability: change in lauric acid concentration of surfactant solutions after 65 C for 1 month vs baseline (HPLC/MS/MS); type: physicochemical; settings: for Delta % lauric acid/Anionic Surfactant Conc.: 65 C 1 month; for Delta % lauric acid/Co Surfactant Conc.: 8.0% co surfactant alone, 65 C 1 month vs as made at about 25 C
Experimental: Lowering the personal care composition's pH is a key driver of hydroxy acid delivery to the hair and the skin under the hair. However, lowering pH reduces the options of suitable anionic surfactants free-of sulfates as many are susceptible to hydrolysis. Therefore, surfactant stability is analyzed by measuring the change in lauric acid concentration of surfactant solutions after exposure to high temperature (65 C) for 1 month and at range of pH vs. baseline conditions (surfactant solutions as made at ambient temperature of about 25 C). As shown in the table below, the Taurate surfactants are less susceptible to degradation at lower pH and (rows 8-10, 17-21 and 30-33) vs. other common amino acid based anionic surfactants (Sarcosinate, Alaninate, Glutamate, Glycinate, and Isethionate).
Approximately 10 mg of each sample is weighed into a vial and 10 mL of isopropanol (IPA) added and mixed. An aliquot of the diluted sample (0.1 mL) is then transferred into an autosampler vial containing stable-isotope-labeled (D23 lauric acid) internal standard (ISTD) and diluent (85/15 IPA/water, 0.9 mL). A set of lauric acid standards is prepared over an appropriate calibration range in diluent and spiked with ISTD. The standards and samples are analyzed using gradient reversed-phase high performance liquid chromatography with tandem mass spectrometry (HPLC/MS/MS). Lauric acid and the ISTD are monitored by negative ion electrospray (ESI) using “pseudo” selected reaction monitoring (i.e., a precursor-to-precursor transition with no mass loss). A standard curve is constructed by plotting the peak area ratio (peak area lauric acid/peak area ISTD) for each standard versus lauric acid concentration. The amount of lauric acid in the calibration standards and diluted samples is back-calculated using the generated regression equation. The result is reported as the mass of lauric acid per g of sample (% Lauric Acid).

forearm skin = assay: Surfactant mildness forearm study, GPSkin device, TEWL; type: in vivo; settings: Sodium Methyl Cocoyl Taurate at 2.5% vs Sodium Lauryl Sulfate at 9.0%, pH 3.0 compositions
Experimental: • Method. A simple forearm study design approach is leveraged to screen prototypes for skin health benefits. GPSkin devices from GPOWER Inc. are used to monitor skin health over the duration of the study. Baseline GPSkin health measures are taken on day 1 followed by product treatment and rinse. This procedure is repeated over three consecutive days and two treatments are evaluated. n=7

[2] = 7.0% Cocamidopropyl Betaine + 3.0% anionic surfactant, pH 4.5
[3] = 7.0% Cocamidopropyl Betaine + 3.0% anionic surfactant, pH 5.2
[4] = 7.0% Cocamidopropyl Betaine + 3.0% anionic surfactant, pH 5.8
[5] = 7.0% Cocamidopropyl Betaine + 3.0% anionic surfactant, pH 6.5

Delta % lauric acid/Anionic Surfactant Conc. [1, 2] [%]	Delta % lauric acid/Anionic Surfactant Conc. [1, 3]	Delta % lauric acid/Anionic Surfactant Conc. [1, 4] [%]	Delta % lauric acid/Anionic Surfactant Conc. [1, 5] [%]	Compound	further results
16.097	5.262%	2.867	3.002	CCCCCCCCCCCC(=O)OC(C)CS(=O)(=O)[O-].[Na+] (centres unmarked) [Sodium Lauroyl Methyl Isethionate]	–
–	–	–	–	Cocamidopropyl Betaine	Delta % lauric acid/Co Surfactant Conc. ([1]; pH 5.2): 0.130%; Delta % lauric acid/Co Surfactant Conc. ([1]; pH 5.8): 0.216%; Delta % lauric acid/Co Surfactant Conc. ([1]; pH 6.5): 0.187% and 0.154%
9.905	5.890%	2.058	1.097	Sodium cocoyl alaninate	Delta % lauric acid/Anionic Surfactant Conc. ([1]; 8.0% anionic surfactant alone, pH 5.2): 5.735%; Delta % lauric acid/Anionic Surfactant Conc. ([1]; 8.0% anionic surfactant alone, pH 5.6): 2.086%; Delta % lauric acid/Anionic Surfactant Conc. ([1]; 8.0% anionic surfactant alone, pH 6.3): 0.729%
12.626	7.971%	1.791	0.619	Sodium cocoyl glycinate	–
–	7.379%	–	–	Sodium cocoyl isethionate	Delta % lauric acid/Anionic Surfactant Conc. ([1]; 7.0% Cocamidopropyl Betaine + 3.0% anionic surfactant, pH 5.7): 4.277%; Delta % lauric acid/Anionic Surfactant Conc. ([1]; 7.0% Cocamidopropyl Betaine + 3.0% anionic surfactant, pH 6.4): 3.124%
1.076	0.135%	−0.276	0.024	Sodium cocoyl taurate	–
–	1.005% and 1.220% and 1.468%	0.689	0.510	Sodium methyl cocoyl taurate	Delta % lauric acid/Anionic Surfactant Conc. ([1]; 8.0% anionic surfactant alone, pH 5.1): 0.218%; Delta % lauric acid/Anionic Surfactant Conc. ([1]; 8.0% anionic surfactant alone, pH 5.8): 0.026%; Delta % lauric acid/Anionic Surfactant Conc. ([1]; 8.0% anionic surfactant alone, pH 6.5): 0.223%; mildness on forearm skin (forearm skin): milder on forearm skin than Sodium Lauryl Sulfate at 9.0%
